Results published in patent US6649654B1, “Methods for identifying and using IKK inhibitors” (The Regents of the University of California, priority 1999, dated 2003).

How the values were obtained:
IKK [1] = molecular target: T1, IKK (Homo sapiens, UniProt O14920+O15111); experiment: In vitro kinase assay of IKK immunoprecipitated from TNFα-stimulated HeLa cells; format: biochemical; design: Endogenous IKK was immunoprecipitated from TNFα-stimulated HeLa cells; endogenous in cells; host or cells: HeLa; settings: immunoprecipitated IKK, 100 μM (LTB4 2 μM, 15dPGJ2 10 μM)
T1 sequence (O15111 whole entry, one chain of several): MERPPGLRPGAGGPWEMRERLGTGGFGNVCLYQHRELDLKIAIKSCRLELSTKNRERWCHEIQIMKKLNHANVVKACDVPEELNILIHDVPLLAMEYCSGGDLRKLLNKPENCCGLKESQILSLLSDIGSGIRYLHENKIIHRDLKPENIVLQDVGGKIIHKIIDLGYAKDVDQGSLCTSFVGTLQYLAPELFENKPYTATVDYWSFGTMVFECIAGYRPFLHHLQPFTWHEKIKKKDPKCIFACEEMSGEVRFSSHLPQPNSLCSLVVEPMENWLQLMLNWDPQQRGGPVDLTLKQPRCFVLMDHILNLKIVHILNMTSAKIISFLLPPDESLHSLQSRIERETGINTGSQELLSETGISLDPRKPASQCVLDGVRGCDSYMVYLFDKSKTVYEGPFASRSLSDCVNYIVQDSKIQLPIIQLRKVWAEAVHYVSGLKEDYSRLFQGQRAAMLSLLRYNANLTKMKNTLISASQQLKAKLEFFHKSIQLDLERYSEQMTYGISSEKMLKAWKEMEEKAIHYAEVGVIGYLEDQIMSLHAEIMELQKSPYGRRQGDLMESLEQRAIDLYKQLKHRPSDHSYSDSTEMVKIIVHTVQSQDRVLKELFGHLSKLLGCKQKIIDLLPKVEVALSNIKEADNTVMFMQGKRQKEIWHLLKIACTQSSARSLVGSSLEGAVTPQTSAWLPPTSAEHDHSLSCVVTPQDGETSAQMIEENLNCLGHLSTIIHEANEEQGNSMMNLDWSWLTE
T1 sequence (Q9Y6K9 whole entry partner, one chain of several): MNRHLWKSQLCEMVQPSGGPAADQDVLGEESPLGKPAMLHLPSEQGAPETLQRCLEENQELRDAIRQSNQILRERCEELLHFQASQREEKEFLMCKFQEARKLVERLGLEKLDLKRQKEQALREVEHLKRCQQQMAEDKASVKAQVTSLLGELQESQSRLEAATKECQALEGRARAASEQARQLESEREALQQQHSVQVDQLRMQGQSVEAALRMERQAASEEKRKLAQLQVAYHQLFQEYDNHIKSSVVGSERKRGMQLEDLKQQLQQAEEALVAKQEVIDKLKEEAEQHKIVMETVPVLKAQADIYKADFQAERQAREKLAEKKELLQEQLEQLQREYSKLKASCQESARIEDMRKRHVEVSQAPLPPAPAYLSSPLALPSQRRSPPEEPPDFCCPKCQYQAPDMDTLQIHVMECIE
Method: (§1) Cell lysates were incubated with anti-IKKα (Pharmingen), anti-HA (12CA5; Pharmingen), anti-JNK1 (333.8; Pharmingen), or anti-p38 (New England Biolabs) for 2 hours. Then, 15 μl protein A-Sepharose (Sigma) were added and the mixture was allowed to incubate for 1 hour. After extensive washing, kinase assays were performed as known in the art (See e.g., DiDonato et al., Nature 388:548-554 [1997]). Endogenous IKK, HA-tagged IKKα, endogenous JNK1, and p38 activities were determined with GST-1κBα(1-54), GST-c-Jun(1-79), and GST-ATF2 as substrates.
Endogenous IKK was immunoprecipitated from TNFα-stimulated HeLa cells and the kinase activity determined in the presence of different concentrations of PGA1 (the results of which are shown in FIG. 2B) or 15dPGJ2 (the results of which are shown in FIG. 2C).
(§2) In this Example, experiments to determined the effects of arachidonic acid and its metabolites on IKK activity in vivo and in vitro are described. HeLa cells were treated with 50 μM AA, PGA1, PGB2, PGD2, PGE1, PGE2, PGF1α, or thromboxane B2 (T×B2), 1 μM LTB4, or 5 μM 15dPGJ2, for 2 hours in RPMI containing 10% FCS, and stimulated with TNFα for 10 minutes. Cell lysates were then assayed for endogenous IKK activity and recovery. In this FIGURE, “control” indicates unstimulated cells, and “-” indicates treatment with diluent alone. In addition, IKK was immunoprecipitated from TNFα-stimulated HeLA cells and incubated in vitro with 100 μM AA, PGA1, PGB2, PGD2, PGE1, PGE2, PGF1α, or T×B2, 2 μM LTB4 or 10 μM 15dPGJ2, followed by kinase assay and immunoblot analysis. In this FIGURE, “control” indicates to unstimulated cells, and “-”indicates 1% ethanol.
Many protein kinase inhibitors compete with binding of ATP, but preincubation in the presence of increasing concentrations of ATP had no effect on inhibition of IKKβ by 15dPGJ2, as indicated in FIG. 6A. […] The pellets were rinsed and kinase activity was measured.

IKK [2] = molecular target: T1, IKK; experiment: Endogenous IKK activity (kinase assay) in treated, stimulated HeLa cells; format: cell-based; design: Endogenous IKK was immunoprecipitated from TNFα-stimulated HeLa cells; endogenous in cells; host or cells: HeLa; settings: HeLa cells, 50 μM (LTB4 1 μM, 15dPGJ2 5 μM) 2 hours, TNFα 10 minutes
Method: (§3) Cells used in the experiments described herein were cultured in either RPMI 1640 (Jurkat cells) or DMEM (HeLa and COS cells), supplemented with 10% FBS and antibiotics. Cells were stimulated with either 25 ng/ml TPA, 20 ng/ml recombinant TNFα, or 10 ng/ml interleukin 1β (Sigma). PGA1, 15dPGJ2, T×B2, LTB4, AA and other PGs (Cayman) dissolved in ethanol were used as well, as known in the art (See e.g., Rossi et al., 94:746-750 [1997]). Controls received equal amounts of ethanol. Transfections were performed using Lipofectamine Plus (GIBCO) for HeLa and COS cells and DEAE-dextran (Sigma) for Jurkat cells. Xpress-tagged NIK, Xpress-tagged MEKK1, HA-tagged IKKα, and HA-tagged IKKβ were also used (See e.g., Zandi et al., Science 281:1360-1363 [1998]; and Delhase et al., Science 284:309-313 [1999]). COX2 and cPLA2 expression vectors were obtained from Dr. L. Feng (See also, Hirose et al., J. Am. Soc. Nephrol., 9:408-416 [1998]). PGD synthase was cloned from HT29 colon carcinoma cell line cDNA by PCR and subcloned into a pCDNA3 vector. Cells were lysed in buffer B (50 mM Tris-HCl, pH 7.5, 400 mM NaCl, 1 mM EDTA, 1 mM EGTA, 1% Triton, 0.5% NP-40, 10% glycerol, and supplemented with 20 mM β-glycerophosphate, 10 mM PNPP, […] 1 mM PMSF, 20 μg/ml aprotinin, 2.5 μg/ml leupeptin, 8.3 μg/ml bestatin, 1.7 μg/ml pepstatin, and 2 mM DTT).
as §1, §2

IKKβ = molecular target: T2, IKKβ (Homo sapiens, UniProt O14920); design: FLAG; made in house; host or cells: Sf9 (baculovirus); settings: high concentrations; Yin et al.; cited from earlier work
T2 sequence (O14920 1-756): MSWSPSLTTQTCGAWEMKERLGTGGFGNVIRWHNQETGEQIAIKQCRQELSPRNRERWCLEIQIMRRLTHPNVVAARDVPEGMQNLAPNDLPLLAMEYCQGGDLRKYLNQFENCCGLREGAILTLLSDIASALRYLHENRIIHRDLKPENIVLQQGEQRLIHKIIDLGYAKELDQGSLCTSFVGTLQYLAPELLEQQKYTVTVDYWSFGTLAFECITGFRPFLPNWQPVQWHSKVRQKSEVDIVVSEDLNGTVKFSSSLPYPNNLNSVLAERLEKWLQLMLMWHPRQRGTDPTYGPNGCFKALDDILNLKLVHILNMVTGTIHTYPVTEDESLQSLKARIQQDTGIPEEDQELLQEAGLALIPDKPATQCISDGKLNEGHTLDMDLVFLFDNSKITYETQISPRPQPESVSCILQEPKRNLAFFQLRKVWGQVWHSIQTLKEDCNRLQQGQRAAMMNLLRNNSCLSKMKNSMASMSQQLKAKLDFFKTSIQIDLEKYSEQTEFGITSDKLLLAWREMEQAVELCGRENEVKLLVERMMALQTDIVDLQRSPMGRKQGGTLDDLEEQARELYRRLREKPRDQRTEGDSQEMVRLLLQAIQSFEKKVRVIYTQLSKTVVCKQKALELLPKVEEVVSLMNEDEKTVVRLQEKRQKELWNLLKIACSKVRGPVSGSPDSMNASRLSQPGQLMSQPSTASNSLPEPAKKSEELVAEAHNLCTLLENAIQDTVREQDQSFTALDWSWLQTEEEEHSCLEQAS

NF-κB = NF-κB activation / DNA-binding activity by EMSA in stimulated HeLa cells; format: cell-based, human; settings: HeLa cells stimulated with TNFα (PGA1: IL-1 or TNFα)
Method: as §3
Aliquots of total extracts (15 μg protein) in buffer B were incubated with a ^32P-labeled κB DNA, followed by analysis of DNA-binding activities by EMSA on 4% PAGE gels, as known in the art (See, Rossi et al., supra). Specificity of protein-DNA complexes was verified by supershift with polyclonal antibodies specific for p65 (Rel A).

Structure (SMILES)	effect on IKK activity in vitro, FIG. 5B (IKK [1])	effect on IKK activity in vivo (cells), FIG. 5A (IKK [2])	inhibition of IKKβ (IKKβ)	effect on NF-κB activation (NF-κB)
CCCCC/C=C\C/C=C\C/C=C\C/C=C\CCCC(=O)O [Arachidonic acid, arachidonic acid]	ineffective	ineffective	–	–
CCCCC[C@H](O)/C=C/C1=C(C/C=C\CCCC(=O)O)C(=O)CC1 [PGB2]	ineffective	ineffective	–	–
CCCCC[C@H](O)/C=C/[C@H]1C(=O)C[C@H](O)[C@@H]1C/C=C\CCCC(=O)O [PGD2]	ineffective	ineffective	–	–
CCCCC[C@H](O)/C=C/[C@H]1[C@H](O)CC(=O)[C@@H]1CCCCCCC(=O)O [PGE1]	ineffective	ineffective	–	–
CCCCC[C@H](O)/C=C/[C@H]1[C@H](O)CC(=O)[C@@H]1C/C=C\CCCC(=O)O [PGE2]	ineffective	ineffective	–	–
CCCCC[C@H](O)/C=C/[C@@H]1[C@@H](CCCCCCC(=O)O)[C@@H](O)C[C@H]1O [PGF1α]	ineffective	ineffective	–	–
CC(=O)Oc1ccccc1C(=O)O [aspirin]	–	–	inhibited	–
CCCCC/C=C\C[C@@H](O)/C=C/C=C/C=C\[C@@H](O)CCCC(=O)O [leukotriene B4]	ineffective	ineffective	–	–
CCCCC[C@H](O)/C=C/[C@H]1OC(O)C[C@H](O)[C@@H]1C/C=C\CCCC(=O)O (stereo partly drawn) [thromboxane B2]	ineffective	ineffective	–	–
Cc1c(C)c2c(c(C)c1O)CCC(C)(COc1ccc(CC3SC(=O)NC3=O)cc1)O2 (stereo not drawn) [troglitazone, reference compound]	–	–	–	does not inhibit
